This is an account of results in patent publication US20200061155A1, “COMPOSITIONS AND METHODS FOR TREATING LYNX2 DISORDERS” (OPHIDION, INC, priority 2017, published 2020).

In test [1] the test system is lynx2KO mice. The test can be described thus: light dark box experiment (latency to enter dark enclosed environment). The following applies: lynx2KO mice under chronic stress with mec vs lynx2KO mice without mec (FIG. 2A). In kind it is in vivo, mouse. An excerpt: FIG. 2A is a graph of the time in seconds (latency) for wild type (WT) (black bars) or lynx2 knock out (KO) (white bars) mice to enter a dark enclosed environment under conditions of saline, chronic stress, or chronic stress with administration of mecamylamine (mec) as indicated, according to embodiments of the present invention.

In test [2] the test system is lynx2KO mice. As to the kind of experiment: fear extinction experiment (noise previously paired with electric shock). In kind it is in vivo, mouse. Particulars: lynx2KO mice with mec vs lynx2KO mice without mec (FIGS. 2B-2C). As to the method: FIG. 2B is a graph of fear observed in wild type (black circles) and lynx2KO mice (white triangles) after fear training (an electric shock depicted in yellow) associated with a noise for 24 hours followed by the same noise without the shock to measure the mouse's capability to lose the fear, according to embodiments of the present invention.
FIG. 2C is a graph of fear observed in lynx2KO mice during the fear extinction experiment of FIG. 2B with a group of lynx2KO mice receiving mecamylamine (mec), according to embodiments of the present invention.

Test [3] has as its system basolateral amygdalar neurons of lynx2KO mice. The test can be described thus: spike timing dependent plasticity (post-pre stimulation), EPSC amplitude, perforated patch-clamp. The following applies: 10 μM DHPG for 15 min; lynx2KO neurons (FIG. 8E). In kind it is cell-based, mouse. A general note: Patch clamp records ionic current or voltage across a cell membrane.
Experimental: Spike timing (i.e., Δt in ms) was determined between the onset of the EPSP and the peak of the AP. […] Post-pre stimulation was given tp determine the level of LTD. x-axis is time in minutes, y axis is EPSC amplitude, normalized and presented as a percentage (baseline set to 100). Baseline is EPSC amplitude before post-pre stimulation.
For activation of mGluR receptor with DHPG (FIG. 8E) in a spike-timing dependent paradigm (post-pre stimulation) to elicit LTD. For exploration of the mechanism of anti-Hebbian LTP, mGluR5 agonist DHPG (10 μM, Tocris Bioscience, Bristol, UK) was administered for 15 min when the baseline recorded at least 10 min. […] Baseline is EPSC amplitude before post-pre stimulation.
Pairings were repeated 100 times. Pre-post (spike timings as positive) was set as a 1 EPSP/1 AP pairing (100 repeats at 1 Hz) or post-pre (spike timing as negative) with either 1 AP/1 EPSP pairing (100 repeats at 1 Hz). Spike timing (i.e., Δt in ms) was determined between the onset of the EPSP and the peak of the AP.
Test [4] deals with brain slices from lynx2 knockout (KO) mice. As to the kind of experiment: long term depression (LTD) of evoked fEPSPs in brain slices after theta pulse stimulation. The following applies: ACSF with 20 mM methyllycaconitine; lynx2KO slices; theta pulse stimulation (FIG. 4D). It is filed as cell-based, mouse. As to the method:
FIG. 4D is a graph of stimulating electrode traces from long term depression (LTD) experiments using extracellular recordings for evoked field excitatory post-synaptic potentials (fEPSPs) in […] (EC) brain slices in ACSF solution with […] methyllycaconitine (MLA) from lynx2 knockout (KO) mice before (left of zero minutes) and after (right of zero minutes) theta pulse stimulations (TSP), according to embodiments of the present invention.
Field excitatory postsynaptic potentials (fEPSPs) were evoked by 0.05 Hz test stimulus though a bipolar stimulating electrode placed on external Capsule (EC), and a glass pipette as recording electrode was filled with ACSF and placed in BLA. […] Access resistances were continuously monitored and neurons with more than 20% change of series resistance were excluded from data analysis.
The plasticity ratio was calculated from the average EPSP amplitude of the last 10 mins of baseline recording and the last 15 mins after high frequency or low stimulus, for LTP and LTD studies, respectively. […] For all experiments, treatment effects were analyzed with one-way ANOVA, followed by the appropriate post hoc tests. […]

Turning to `CNC1(C)C2CCC(C2)C1(C)C` (stereo not shown) [mecamylamine], the latency to dark entry in the test on lynx2KO mice [1] is “increased latency to dark”. Further, the “ability to unlearn a fear associated with a noise (fear extinction)” value in the test on lynx2KO mice [2] is recorded as “increased ability to unlearn a fear associated with a noise”. As for `NC(C(=O)O)c1cc(O)cc(O)c1` (stereo not shown) [DHPG, 3,5-dihydroxyphenylglycine], the “synaptic plasticity (EPSC amplitude after post-pre stimulation)” value in test [3] is recorded as “restores the abnormal synaptic plasticity in the lynx2KO neurons to normal levels”.

`CCN1C[C@]2(COC(=O)c3ccccc3N3C(=O)C[C@H](C)C3=O)CC[C@H](OC)[C@@]34[C@@H]5C[C@H]6[C@H](OC)[C@@H]5[C@](O)(C[C@@H]6OC)[C@@](O)([C@@H](OC)[C@H]23)[C@@H]14` [methyllycaconitine]: in test [4], the “induced long term depression (LTD) of fEPSPs” value is given as “able to rescue induced long term depression (LTD)”.
